# Results taken from article PMC6934184, “Selective DNA-PKcs inhibition extends the therapeutic index of localized radiotherapy and chemotherapy” (The Journal of Clinical Investigation, 2019).
# Target: T1, GSG2 (Haspin) (Homo sapiens, UniProt Q8TF76)
# T1 construct: purchased Thermo Fisher Scientific (Life Technologies) SelectScreen
# Test: SelectScreen Adapta
# Type: biochemical
# Outline: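 SelectScreen broad panel; activity (Z'LYTE, Adapta) plus binding formats. ATP: Km app for CSF1R Z'LYTE; 10 for CAMK1 Adapta. Readout = % per kinase.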
# T1 sequence (Q8TF76 whole entry): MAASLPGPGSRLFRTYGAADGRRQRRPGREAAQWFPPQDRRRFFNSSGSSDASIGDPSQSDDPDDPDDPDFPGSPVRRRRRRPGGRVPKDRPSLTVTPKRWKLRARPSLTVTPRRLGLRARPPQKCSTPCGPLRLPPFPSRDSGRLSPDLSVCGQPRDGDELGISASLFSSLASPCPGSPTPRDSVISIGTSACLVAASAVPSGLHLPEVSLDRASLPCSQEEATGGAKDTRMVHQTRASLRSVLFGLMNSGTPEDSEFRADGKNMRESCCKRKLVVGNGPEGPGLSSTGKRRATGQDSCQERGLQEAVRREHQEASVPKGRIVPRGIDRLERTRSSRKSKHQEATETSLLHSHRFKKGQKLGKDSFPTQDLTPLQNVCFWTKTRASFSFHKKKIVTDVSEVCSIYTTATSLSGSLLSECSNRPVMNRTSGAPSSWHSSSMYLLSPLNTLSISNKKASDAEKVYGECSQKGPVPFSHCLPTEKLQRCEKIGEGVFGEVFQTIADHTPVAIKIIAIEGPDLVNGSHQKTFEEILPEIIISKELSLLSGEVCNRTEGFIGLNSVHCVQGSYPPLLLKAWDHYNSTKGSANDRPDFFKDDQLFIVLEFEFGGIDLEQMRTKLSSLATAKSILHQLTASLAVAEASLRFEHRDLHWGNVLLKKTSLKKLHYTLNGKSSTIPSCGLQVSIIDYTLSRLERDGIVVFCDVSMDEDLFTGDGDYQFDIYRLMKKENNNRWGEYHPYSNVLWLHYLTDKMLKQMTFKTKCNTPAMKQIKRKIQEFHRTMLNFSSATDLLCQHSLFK
smiles,measurement,value
CN(C(=O)CN1CCOCC1)c1ccc2sc3c(-c4cccc5c(=O)cc(N6CC7CCC(C6)O7)oc45)cccc3c2c1 [NU5455],inhibition at 1 µM,-15%
